Data taken from patent US20040157845A1, “Vanilloid receptor ligands and their use in treatments” (Amgen Inc., priority 2003, published 2004).

Row | melting point [°C] | Compound
1 | 267 to 268 | Clc1cccc(Cl)c1Nc1nc(-c2nc3cc(Br)ccc3[nH]2)cs1 [Example 74]
2 | 186 to 187 | O=C(Nc1ccc(C(F)(F)F)cc1)c1csc(Nc2ncccc2Cl)n1 [Example 75]
3 | 226 to 258 | O=C(Nc1ccc(Br)cc1)c1csc(Nc2ncccc2Cl)n1 [Example 76]
4 | 164 to 165 | O=C(Nc1ccc(Br)cc1)c1coc(Cc2c(Cl)cccc2Cl)n1 [Example 78]
